Source: patent US8697685B2, “Chemical compounds” (GlaxoSmithKline LLC, priority 2008, dated 2014)

Experiments:
[1] = target: T1, full length PDK1 (Homo sapiens, UniProt O15530); test: PDK1 enzyme assays (substrate phosphorylation: LEADseeker scintillation proximity, TR-FRET, PDKtide); assay type: biochemical; settings: in at least one experimental run, read-out: IC50 against full length PDK1
T1 construct: Full-length human 3-Phosphoinositide Dependent protein Kinase-1; made in house; host or cells: baculovirus / Sf9 insect cells
T1 sequence (O15530 1-556): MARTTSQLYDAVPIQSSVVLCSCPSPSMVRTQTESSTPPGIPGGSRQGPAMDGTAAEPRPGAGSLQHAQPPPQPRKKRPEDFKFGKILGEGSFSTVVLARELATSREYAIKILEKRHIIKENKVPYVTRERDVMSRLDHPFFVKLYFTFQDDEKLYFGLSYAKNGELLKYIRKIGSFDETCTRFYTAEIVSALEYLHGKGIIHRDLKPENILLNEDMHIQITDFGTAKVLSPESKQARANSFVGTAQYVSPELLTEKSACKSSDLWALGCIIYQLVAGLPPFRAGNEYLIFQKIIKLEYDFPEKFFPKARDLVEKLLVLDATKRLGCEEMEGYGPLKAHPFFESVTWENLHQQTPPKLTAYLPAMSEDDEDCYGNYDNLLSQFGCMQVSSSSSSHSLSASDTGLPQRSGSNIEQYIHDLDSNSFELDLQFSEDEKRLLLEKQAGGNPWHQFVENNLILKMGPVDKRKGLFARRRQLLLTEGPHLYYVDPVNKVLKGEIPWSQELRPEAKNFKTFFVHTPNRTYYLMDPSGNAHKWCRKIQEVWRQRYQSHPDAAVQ
Procedure: Substrate phosphorylation assays are carried out as follows:
Biotinylated-hAKT1: Human AKT1 (containing amino acid residues 136-480, as annotated by National Center for Biotechnology Information (NCBI) accession number AAL55732.1, with a MetLysLysHis6 N-terminal addition) is purified to >90% from lysate of baculovirus expression by Nickel Chelating ProBond resin (InVitrogen), Q-Sepharose Fast Flow, and Superdex 200 size exclusion chromatography. Biotinylation is achieved using EZ-Link Sulfo-NHS-LC Biotin (Pierce). Samples, in 25 mM HEPES, pH 7.5, 200 mM NaCl, 2 mM DTT, and 30% glycerol are stored at −80C until use.
(§1) Full-length human 3-Phosphoinositide Dependent protein Kinase-1 (hPDK1; National Center for Biotechnology Information (NCBI) accession number AAH39158.1 with a MetGlyHis6 N-terminal addition) is purified from baculovirus expression in Sf9 cells. Purity of approximately 80% is achieved by the use of chelation chromatography (Ni-NTA Superflow) and desalting columns. Samples, in 25 mM HEPES, 150 mM NaCl, 2.5 mM DTT, 0.05% Triton, 30% glycerol, pH 8.0, are stored at −80° C. until use.
The 39 amino acid biotinylated-PDKtide peptide Seq. ID No. 1: (Biotin-Ahx-[…]) was custom synthesized by 21st Century Biochemicals. […] The concentration was confirmed by quantitative amino acid analysis.
Scintillation Proximity (LEADseeker) Kinase Assay of Purified hPDK1:
Assays are performed in 384-well microtiter plates (Greiner, Catalog No. 784075). The reaction volume (10 μl) contains, in final concentrations, 25 mM MOPS (pH 7.5), 10 mM MgCl2, 50 mM KCl, 0.1 mg/ml BSA, 1 μM ATP, 3 uCi/ml ^33PγATP, 5 mM DTT, 1 mM CHAPS or 0.05% Tween20, 0.35 μM AKT1 biotinylated protein, and 10 nM hPDK1.
Compounds, titrated in DMSO, are evaluated at eleven concentrations ranging from 50 μM to 2 μM. […] Reactions are stopped after 3 hours at room temperature by the addition of 50 mM EDTA, 5 mg/ml LEADseeker beads (GE Healthcare) in PBS (10 ul). Beads are allowed to settle overnight, and samples are imaged on Viewlux (PerkinElmer).
(§2) The data for compound concentration responses were plotted as % Inhibition, calculated with the data reduction formula 100*(1−[(U1−C2)/(C1−C2)]), versus concentration of compound, where
(§3) Data were fitted to the curve described by:
TR-FRET Kinase Assay of Purified hPDK1:
Assays are performed in 384-well microtiter plates (Greiner, Catalog No. 784076).
As previously described for the Scintillation Proximity protocol, hPDK1 is pre-incubated (30 minutes at room temperature) with compounds before initiating phosphorylation of AKT1 by addition of substrate to the hPDK1 and compound mix. Reactions are stopped after 4-6 hours at room temperature by the addition to final concentrations of 0.02 M EDTA, 0.0875 μM Streptavidin APC (PerkinElmer), 0.03 μM AKT1 (phospho T308) antibody (Abcam Inc.), 0.00375 μM Lance Eu-labeled anti rabbit IgG Antibody (PerkinElmer). Antibody binding reaches equilibrium in 30 minutes before signal is read on an EnVision™ 2103 Multilabel Reader (PerkinElmer). APC Signals are normalized to Europium signal. Data processing is the same as described for the Scintillation Proximity assay with the exception of the generation of the “C2” control by addition of buffer without hPDK1 to control wells at t=0 instead of EDTA.
(§4) Scintillation Proximity (LEADseeker) Kinase Assay of Purified hPDK1 using Biotinylated-PDKtide Peptide:
(§5) Assays are performed in 384-well microtiter plates (Greiner, Catalog No. 784075). The reaction volume (10 μl) contains, in final concentrations, 25 mM MOPS (pH 7.5), 10 mM MgCl2, 50 mM KCl, 0.1 mg/ml BSA, 1 μM ATP, 3 uCi/ml ^33PγATP, 5 mM DTT, 0.5 mM CHAPS, 1 μM biotinylated-PDKtide peptide, and 0.5 nM hPDK1.
Compounds, titrated in DMSO, are evaluated at eleven concentrations ranging from 25 μM to 0.4 pM. […] Reactions are stopped after 4 hours at room temperature by the addition of 50 mM EDTA, 5 mg/ml LEADseeker beads (GE Healthcare) in PBS (10 ul).

[2] = system: AKT phosphorylation at T308 in PC-3 cells; test: Phospho-AKT (T308) ELISA in PC3 cells; assay type: cell-based; settings: Homo sapiens, 6 hours compound treatment, in at least one experimental run, read-out: IC50 for inhibition of AKT phosphorylation at T308 in PC-3 cells
Procedure: Phospho-AKT (S473, T308, Total AKT) and phospho-RSK ELISA
PC3 cells (ATCC, Manassas, Va.) were plated in 96-well flat bottom plates (Corning, Lowell, Mass.) at a density of 15,000 cells/well in RPMI 1640 medium supplemented with 10% FBS. Cells were incubated at 37° C., 5% CO2 for 18-20 h. Compounds (dissolved in 100% DMSO) were diluted in an 11-point 3-fold dilution in DMSO. Compound dilution stocks were further diluted in RPMI 1640 with 10% FBS and added to each cell well. DMSO without compound was used in control wells. Final concentration of DMSO in each well was 0.15%. After 6 hours at 37° C. cells were washed with cold PBS (without calcium or magnesium) and lysed in lysis buffer (Meso Scale Discovery, Gaithersburg, Md.) supplemented with 1 protease inhibitor tablet/10 ml (Roche, Indianapolis, Ind.), 10 mM NaF, and 200 μl/10 ml Sigma phosphatase inhibitor 1 & 2 (Sigma Aldrich, St Louis, Mo.) for 30 min at 4° C. All washes were performed on a Bio Tek ELx405 plate washer (Bio Tek Instruments, Winooski, Vt.).
ELISA plates (Meso Scale Discovery; AKT Duplex, cat. N41100B-1; phospho AKT, cat. N411CAB-1; RSK, cat. N41ZB-1) were prepared by the addition of blocking buffer (3% Blocker A diluted in wash buffer (Meso Scale Discovery) for AKT duplex assay and phospho AKT assays; 5% Blocker A/1% Blocker B in Tris-buffered saline for RSK) for 1 hour and washed with wash buffer. Lysates were transferred to assay wells and incubated overnight at 4° C. Following washing with wash buffer, detection buffer (1% Blocker A in wash buffer for AKT duplex and phospho AKT or 1% Blocker A in TBS for RSK) with appropriate antibodies was added. Detection of AKT duplex and phospho AKT was carried out using a sulfo-tagged detection antibodies (Meso Scale Discovery). Detection of phospho-RSK was carried out sequentially with anti phospho-RSK1 (S221)/RSK2 (S227) (R&D systems, Minneapolis, Minn., cat. AF892) and goat anti-rabbit sulfo-tag antibody (cat R32AB-1; Meso Scale Discovery). Plates were incubated for 1 hour at room temperature and washed with wash buffer. Plates were read on a SECTOR™ Imager 6000 (Meso Scale Discovery) using Workbench software (Meso Scale Discovery) following addition of read buffer (Meso Scale Discovery) to each well. For analysis, phospho-AKT (S473) signals were normalized to total AKT, while phospho-AKT (T308) and phospho-RSK signals were analyzed without normalization. All values were expressed as percent of the DMSO-treated controls. IC50s were determined from inhibition curves using XLfit4 software (IDBS, Guildford, UK).

[3] = target: T1, full length PDK1; test: Scintillation Proximity (LEADseeker) kinase assay of purified hPDK1 using biotinylated-PDKtide peptide; assay type: biochemical; settings: in at least one experimental run; PDKtide substrate; read-out: IC50 against full length PDK1 using the PDKtide substrate assay
Procedure: as §1
The 39 amino acid biotinylated-PDKtide peptide Seq. ID No. 1: (Biotin-Ahx-[…]) was custom synthesized by 21st Century Biochemicals. The peptide was >95% pure and dissolved in HPLC grade water to give a final concentration of 1.1 mM. The concentration was confirmed by quantitative amino acid analysis.
as §4, §5
Compounds, titrated in DMSO, are evaluated at eleven concentrations ranging from 25 μM to 0.4 pM. […] No effect on activity relative to controls without DMSO is observed for hPDK1 at these DMSO amounts. hPDK1 is pre-incubated, 30 minutes at room temperature, with compounds before initiating phosphorylation of biotinylated-PDKtide peptide by addition of substrate to hPDK1/compound. Reactions are stopped after 4 hours at room temperature by the addition of 50 mM EDTA, 5 mg/ml LEADseeker beads (GE Healthcare) in PBS (10 ul). Beads are allowed to settle overnight, and samples are imaged on Viewlux (PerkinElmer).
as §2, §3
The results for each compound were recorded as pIC50 calculated as follows: […]

| SMILES | IC50 [1] [nM] | IC50 [2] [nM] | IC50 [3] [nM] |
| --- | --- | --- | --- |
| Nc1nc(NC2(Cc3ccccc3)CC2)cc(-c2ccc3c(N)n[nH]c3c2)n1 [Example 61, 6-(3-Amino-1H-indazol-6-yl)-N^4-[1-(phenylmethyl)cyclopropyl]-2,4-pyrimidinediamine] | < 100 | – | 10 |
| CNc1nc(-c2ccc3c(C)n[nH]c3c2)cc(N2C[C@@H](C(=O)NC3CCCCC3)CC[C@H]2C)n1 [Example 83, (3S,6R)—N-Cyclohexyl-6-methyl-1-[2-(methylamino)-6-(3-methyl-1H-indazol-6-yl)-4-pyrimidinyl]-3-piperidinecarboxamide] | < 20 | < 1000 | – |
| CC[C@@H]1COCCN1c1cc(-c2ccc3c(N)n[nH]c3c2)nc(NC)n1 [Example 177, 6-[6-[(3R)-3-Ethyl-4-morpholinyl]-2-(methylamino)-4-pyrimidinyl]-1H-indazol-3-amine] | < 150 | – | 25 |

More lines, now with the values ahead:

| IC50 [1] [nM] | IC50 [2] [nM] | IC50 [3] [nM] | SMILES |
| --- | --- | --- | --- |
| < 20 | < 1000 | – | CNc1nc(-c2ccc3c(N)n[nH]c3c2)cc(N2C[C@@H](C(=O)NCc3ccccc3)OC[C@H]2C)n1 [Example 161, (2S,5R)-4-[6-(3-Amino-1H-indazol-6-yl)-2-(methylamino)-4-pyrimidinyl]-5-methyl-N-(phenylmethyl)-2-morpholinecarboxamide] |
| < 20 | – | 7.9 | CC[C@@H]1CO[C@H](C(=O)NC2CCCCC2)CN1c1cc(-c2ccc3c(N)n[nH]c3c2)nc(N)n1 [Example 173, (2S,5R)-4-[2-Amino-6-(3-amino-1H-indazol-6-yl)-4-pyrimidinyl]-N-cyclohexyl-5-ethyl-2-morpholinecarboxamide] |
| < 50 | < 1000 | – | C[C@@H]1C[C@@H](N(C)C(=O)OC(C)(C)C)CN(c2cc(-c3ccc4c(N)n[nH]c4c3)nc(N)n2)C1 [Example 221, 1,1-Dimethylethyl{(3R,5R)-1-[2-amino-6-(3-amino-1H-indazol-6-yl)-4-pyrimidinyl]-5-methyl-3-piperidinyl}methylcarbamate] |
| < 50 | – | 2 | COc1cc(-c2cc(N3C[C@H](C)C[C@@H](NC(=O)OC(C)(C)C)C3)nc(N)n2)cc2[nH]nc(N)c12 [Example 214, 1,1-Dimethylethyl((3R,5R)-1-[2-amino-6-[3-amino-4-(methyloxy)-1H-indazol-6-yl]-4-pyrimidinyl]-5-methyl-3-piperidinyl)carbamate] |
